Measured values published in article PMC5322872, “ALKBH7 Variant Related to Prostate Cancer Exhibits Altered Substrate Binding” (PLoS Computational Biology, 2017).

Molecular target: T1, ALKBH7 (Homo sapiens, UniProt Q9BT30)
T1 sequence (Q9BT30 17-215): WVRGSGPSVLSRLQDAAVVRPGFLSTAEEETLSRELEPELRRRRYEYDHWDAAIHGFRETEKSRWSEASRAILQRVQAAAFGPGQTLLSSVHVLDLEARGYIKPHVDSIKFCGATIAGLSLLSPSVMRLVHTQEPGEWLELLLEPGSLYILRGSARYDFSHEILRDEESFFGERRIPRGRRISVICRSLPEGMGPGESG
Assay: anaerobic difference UV-Vis spectroscopy (MLCT transition at […] nm)
Type: binding
Details: 0.3 mM protein, 100 uM Fe(II), α-kg 2 mM in Fig 4 legend but 0.2 mM in Methods

O=C(O)CCC(=O)C(=O)O [α-kg]
anaerobic difference UV-Vis spectroscopy (MLCT transition at 510 nm): The spectrum of WT ALKBH7·Fe(II)·α-kg minus that of ALKBH7·α-kg revealed the typical weak MLCT transitions
